Test systems include HCC-2998 colon; HCT-116 colon; HCT-15 colon; MALME-3M melanoma; NCI-H460 lung; TK-10 renal; UACC-257 melanoma; IGROV1 ovarian; OVCAR-4 ovarian.
What all share (experiment): DTP human tumour cell line panel, 48 h

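Test compounds were applied to cells in 96-well plates for 48 hours at 5 doses. GI50: concentration for 50% inhibition of growth. At the TGI there is no net growth.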 Some results are limits rather than exact numbers.

As to `CCOC(C[C@H](O[Si](C)(C)C(C)(C)C)[C@H]1COC(=S)S1)OCC`, the TGI in the test on HCC-2998 colon, in the test on HCT-116 colon, with HCT-15 colon, in the test on MALME-3M melanoma, in the test on NCI-H460 lung and with TK-10 renal was over 100 µM in each case. This compound had a concentration for total growth inhibition (TGI) with UACC-257 melanoma of over 100 µM.

As to `COc1cc2ccnc3c2c(c1OC)-c1coc(SC)c1-3`, the TGI with HCC-2998 colon, with HCT-116 colon, with HCT-15 colon, with IGROV1 ovarian, in the test with MALME-3M melanoma and in the test on NCI-H460 lung was over 100 µM each time. Also, the TGI in the test on OVCAR-4 ovarian, in the test on TK-10 renal and in the test with UACC-257 melanoma was over 100 µM in each case.

Regarding `CCCCCCCCCCCCCCCC(=O)OCC1OC(n2cc(F)c(=O)[nH]c2=O)C(N)C(O)C1O` (stereo not drawn), the TGI in the test with HCC-2998 colon worked out at 27.8 µM; in the test with HCT-116 colon it was 34.4 µM; in the test with MALME-3M melanoma, 38.2 µM; with OVCAR-4 ovarian, 31.2 µM; with TK-10 renal it was 46.5 µM; with UACC-257 melanoma, 40.7 µM.

`COc1cc2c[n+](C)c3c4cc(OC)c(OC(C)C)cc4ccc3c2cc1OC`: the total growth inhibition concentration (TGI) in the test on HCC-2998 colon, in the test on HCT-116 colon, with HCT-15 colon, with IGROV1 ovarian, with MALME-3M melanoma and with NCI-H460 lung was over 100 µM in each case. Moreover, the TGI in the test with OVCAR-4 ovarian, in the test with TK-10 renal and with UACC-257 melanoma was over 100 µM throughout.

Turning to `CCCCCCC[CH2][Sn]([CH2]CCCCCCC)([O]c1cccc2cccnc12)[O]c1cccc2cccnc12`, the GI50 in the test on HCC-2998 colon was 1.99 µM; with HCT-116 colon it was 2.37 µM; in the test with HCT-15 colon it was 2.53 µM; in the test on IGROV1 ovarian it was 2.19 µM; with MALME-3M melanoma, 1.44 µM; with NCI-H460 lung it was 3.12 µM. The GI50 was 3.85 µM in the test with TK-10 renal and 1.56 µM with UACC-257 melanoma. Besides, the TGI in the test on HCC-2998 colon is 3.43 µM; in the test on HCT-116 colon, 10.1 µM; with HCT-15 colon, 10.8 µM; in the test on IGROV1 ovarian it was 5.26 µM; with MALME-3M melanoma, 2.9 µM; in the test with NCI-H460 lung, 10.7 µM. The TGI with TK-10 renal stood at 13.7 µM; in the test on UACC-257 melanoma it was 4.56 µM.

Take `CN(C(=O)C12C3C4C1C1C2C3C41C(N)=O)C(C)(C)C` (stereo not drawn): the TGI with HCC-2998 colon, with HCT-116 colon, in the test with IGROV1 ovarian, with MALME-3M melanoma, in the test on NCI-H460 lung and in the test with OVCAR-4 ovarian was over 100 µM in each case. This compound yielded a TGI in the test with TK-10 renal of over 100 µM.

Turning to `O=[N+]([O-])c1ccc(-n2nnc(C3=NCCN3)c2-c2ccccc2)cc1`, the TGI in the test with HCC-2998 colon, with HCT-116 colon, with HCT-15 colon, with IGROV1 ovarian, with MALME-3M melanoma and in the test on NCI-H460 lung was over 100 µM each time. Also, the TGI in the test with OVCAR-4 ovarian, in the test on TK-10 renal and with UACC-257 melanoma was over 100 µM throughout.

Consider `CC1=NN(C(=O)c2ccccc2O)C(=O)/C1=C/c1ccc(O)cc1`, for which the TGI was over 100 µM in the test with HCC-2998 colon; over 100 µM with HCT-116 colon; over 100 µM with HCT-15 colon; 5.03 µM with IGROV1 ovarian; over 100 µM in the test with MALME-3M melanoma; over 100 µM in the test on NCI-H460 lung. Besides, the TGI in the test with OVCAR-4 ovarian, in the test with TK-10 renal and with UACC-257 melanoma was over 100 µM each time.

Take `C=C1CC2OC(=O)C(=C)C2C(O)C2C(=C)CCC12` (stereo not drawn): the TGI turned out to be 22.2 µM in the test with HCC-2998 colon; 14.5 µM with HCT-116 colon; 35.5 µM with IGROV1 ovarian; 45.1 µM in the test on MALME-3M melanoma; 27.8 µM in the test on NCI-H460 lung; 28 µM in the test with TK-10 renal. The compound also gave a concentration for total growth inhibition (TGI) in the test with UACC-257 melanoma of 18.8 µM.

Regarding `CCOC(=O)CCC(NC(=O)OCc1ccccc1)C(=O)NC(CCC(=O)OCC)C(=O)NC(CCC(=O)OCC)C(=O)NC(CCC(=O)OCC)C(=O)NC(CCC(=O)OCC)C(=O)NC(CCC(=O)OCC)C(=O)NC(CCC(=O)OCC)C(=O)OCC` (stereo not drawn), the TGI with HCC-2998 colon was 53.8 µM; with HCT-116 colon, over 100 µM; with HCT-15 colon, over 100 µM; in the test on MALME-3M melanoma, over 100 µM; in the test with NCI-H460 lung, over 100 µM; with OVCAR-4 ovarian it was over 100 µM. The TGI in the test with TK-10 renal and with UACC-257 melanoma was over 100 µM throughout.

As to `N/N=C(/C(=O)Nc1cccc(Cl)c1)C(C(=O)c1ccc(O)cc1O)C1OC(=O)c2ccccc21` (stereo not drawn), the TGI in the test with HCC-2998 colon, in the test on HCT-116 colon, in the test on HCT-15 colon, in the test on IGROV1 ovarian, with MALME-3M melanoma and in the test with NCI-H460 lung was over 100 µM throughout. Further, the TGI in the test with OVCAR-4 ovarian, with TK-10 renal and in the test with UACC-257 melanoma was over 100 µM each time.

As to `CC(=O)[CH-]C(=O)c1ccccc1.CC(=O)[CH-]C(=O)c1ccccc1.CC[O-].CC[O-].[Hf+4]`, the GI50 in the test on HCC-2998 colon, in the test with HCT-116 colon, in the test on HCT-15 colon, in the test with IGROV1 ovarian, in the test on MALME-3M melanoma and with NCI-H460 lung was over 100 µM each time. In addition, in the test on OVCAR-4 ovarian, the GI50 was over 100 µM. The TGI in the test with HCC-2998 colon, with HCT-116 colon, in the test with HCT-15 colon, with IGROV1 ovarian, with MALME-3M melanoma and in the test with NCI-H460 lung was over 100 µM in each case. Further, the TGI with OVCAR-4 ovarian is over 100 µM.

With `COc1ccc(C/C(C)=C(/c2ccc(OCCN3CCCCC3)cc2)c2ccc(OC(=O)NCc3ccccc3)cc2)cc1`, the GI50 with HCC-2998 colon is 0.435 µM; with HCT-116 colon it was 0.33 µM; in the test on HCT-15 colon, 0.339 µM; with IGROV1 ovarian, 0.424 µM; with MALME-3M melanoma, 0.395 µM; in the test on NCI-H460 lung, 0.412 µM. Further, the concentration for 50% growth inhibition (GI50) in the test on OVCAR-4 ovarian is 0.393 µM; with TK-10 renal, 0.405 µM; with UACC-257 melanoma, 0.472 µM. For the same compound, the TGI in the test on HCC-2998 colon came out at 0.797 µM; in the test on HCT-116 colon it was 0.698 µM; with HCT-15 colon, 0.706 µM; in the test with IGROV1 ovarian it was 0.859 µM; in the test on MALME-3M melanoma it was 0.776 µM; in the test on NCI-H460 lung it was 0.775 µM. The TGI worked out at 0.764 µM with OVCAR-4 ovarian, 0.781 µM in the test on TK-10 renal and 0.917 µM in the test on UACC-257 melanoma.

For the origin of these results see PubChem BioAssay (NCI).
